Experimental data reported in ChEMBL document CHEMBL4507276 (2021).

Experiments:
[1] = molecular target: T1, Alpha-2A adrenergic receptor (Homo sapiens) (UniProt P08913); test: ALPHA2A/H Eurofins-Panlabs selectivity data (BI); details: Compound concentration 10.0 uM
T1 sequence (whole entry): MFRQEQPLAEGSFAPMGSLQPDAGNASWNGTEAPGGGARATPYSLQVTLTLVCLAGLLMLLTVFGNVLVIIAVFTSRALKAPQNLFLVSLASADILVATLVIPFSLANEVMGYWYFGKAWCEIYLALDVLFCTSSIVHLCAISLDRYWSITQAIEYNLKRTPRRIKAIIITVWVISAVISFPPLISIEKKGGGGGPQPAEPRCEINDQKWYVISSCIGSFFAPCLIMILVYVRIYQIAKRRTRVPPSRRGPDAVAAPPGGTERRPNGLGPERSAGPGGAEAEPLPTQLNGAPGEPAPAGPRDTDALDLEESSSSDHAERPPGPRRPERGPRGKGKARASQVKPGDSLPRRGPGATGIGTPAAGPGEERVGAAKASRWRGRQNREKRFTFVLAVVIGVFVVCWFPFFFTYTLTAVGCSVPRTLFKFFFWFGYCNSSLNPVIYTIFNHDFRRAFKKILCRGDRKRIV

[2] = molecular target: AMP-activated protein kinase (AMPK) alpha-1/beta-1/gamma-1 (Homo sapiens) (UniProt P54619+Q9Y478+Q13131); test: AMPK A1B1G1 Invitrogen selectivity data (BI); type: protein-complex assay; details: Compound concentration 3.0 uM
Sequence of AMP-activated protein kinase (AMPK) alpha-1/beta-1/gamma-1 (Homo sapiens) (P54619 whole entry): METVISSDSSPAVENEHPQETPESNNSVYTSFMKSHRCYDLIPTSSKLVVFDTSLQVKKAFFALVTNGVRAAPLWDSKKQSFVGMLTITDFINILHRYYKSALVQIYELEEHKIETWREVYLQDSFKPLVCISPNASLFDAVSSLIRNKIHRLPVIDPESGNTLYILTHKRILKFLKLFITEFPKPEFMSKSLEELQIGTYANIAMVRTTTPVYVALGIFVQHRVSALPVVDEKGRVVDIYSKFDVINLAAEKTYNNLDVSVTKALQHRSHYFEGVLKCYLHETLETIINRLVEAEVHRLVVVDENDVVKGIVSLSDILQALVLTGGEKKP
Sequence of AMP-activated protein kinase (AMPK) alpha-1/beta-1/gamma-1 (Homo sapiens) (Q13131 whole entry partner): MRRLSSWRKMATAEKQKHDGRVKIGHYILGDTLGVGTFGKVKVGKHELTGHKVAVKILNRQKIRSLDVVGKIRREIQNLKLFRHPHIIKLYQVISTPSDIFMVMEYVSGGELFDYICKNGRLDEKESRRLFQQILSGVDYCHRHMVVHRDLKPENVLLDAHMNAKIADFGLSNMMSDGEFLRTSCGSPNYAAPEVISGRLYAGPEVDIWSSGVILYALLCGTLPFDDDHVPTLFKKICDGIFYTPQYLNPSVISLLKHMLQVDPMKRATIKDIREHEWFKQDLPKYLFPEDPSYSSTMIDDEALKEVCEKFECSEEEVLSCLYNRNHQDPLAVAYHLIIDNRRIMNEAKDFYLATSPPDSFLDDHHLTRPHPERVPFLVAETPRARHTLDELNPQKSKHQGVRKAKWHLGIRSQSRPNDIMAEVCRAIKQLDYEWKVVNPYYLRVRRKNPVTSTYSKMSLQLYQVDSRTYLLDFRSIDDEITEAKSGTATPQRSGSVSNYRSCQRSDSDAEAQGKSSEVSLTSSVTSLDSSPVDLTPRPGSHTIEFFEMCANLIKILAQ
Sequence of AMP-activated protein kinase (AMPK) alpha-1/beta-1/gamma-1 (Homo sapiens) (Q9Y478 2-270 partner limits assumed): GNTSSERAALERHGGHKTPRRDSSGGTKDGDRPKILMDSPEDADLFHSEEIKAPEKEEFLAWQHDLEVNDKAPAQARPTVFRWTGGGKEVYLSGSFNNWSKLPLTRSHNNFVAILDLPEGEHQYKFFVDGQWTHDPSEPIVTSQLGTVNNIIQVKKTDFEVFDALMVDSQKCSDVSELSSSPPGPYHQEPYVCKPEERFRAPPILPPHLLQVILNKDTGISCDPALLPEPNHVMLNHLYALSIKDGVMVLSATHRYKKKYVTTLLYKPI

[3] = molecular target: Mitogen-activated protein kinase 11 (Homo sapiens) (UniProt Q15759); test: MAPK11 Invitrogen selectivity data (BI); details: Compound concentration 3.0 uM
Sequence of Mitogen-activated protein kinase 11 (Homo sapiens) (Q15759 whole entry): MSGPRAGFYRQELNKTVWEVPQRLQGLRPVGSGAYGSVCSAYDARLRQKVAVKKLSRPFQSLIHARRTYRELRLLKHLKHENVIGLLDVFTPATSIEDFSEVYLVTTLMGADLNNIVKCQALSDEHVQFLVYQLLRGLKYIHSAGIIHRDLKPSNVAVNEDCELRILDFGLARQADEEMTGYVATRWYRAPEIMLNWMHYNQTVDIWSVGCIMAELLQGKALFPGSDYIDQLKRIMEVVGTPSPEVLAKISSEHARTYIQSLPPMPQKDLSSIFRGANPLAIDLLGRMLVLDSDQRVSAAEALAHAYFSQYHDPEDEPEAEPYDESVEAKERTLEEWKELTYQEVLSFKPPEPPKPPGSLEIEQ

[4] = molecular target: Serine/threonine-protein kinase Chk2 (Homo sapiens) (UniProt O96017); test: CHEK2 Invitrogen selectivity data (BI); details: Compound concentration 3.0 uM
Sequence of Serine/threonine-protein kinase Chk2 (Homo sapiens) (O96017 whole entry): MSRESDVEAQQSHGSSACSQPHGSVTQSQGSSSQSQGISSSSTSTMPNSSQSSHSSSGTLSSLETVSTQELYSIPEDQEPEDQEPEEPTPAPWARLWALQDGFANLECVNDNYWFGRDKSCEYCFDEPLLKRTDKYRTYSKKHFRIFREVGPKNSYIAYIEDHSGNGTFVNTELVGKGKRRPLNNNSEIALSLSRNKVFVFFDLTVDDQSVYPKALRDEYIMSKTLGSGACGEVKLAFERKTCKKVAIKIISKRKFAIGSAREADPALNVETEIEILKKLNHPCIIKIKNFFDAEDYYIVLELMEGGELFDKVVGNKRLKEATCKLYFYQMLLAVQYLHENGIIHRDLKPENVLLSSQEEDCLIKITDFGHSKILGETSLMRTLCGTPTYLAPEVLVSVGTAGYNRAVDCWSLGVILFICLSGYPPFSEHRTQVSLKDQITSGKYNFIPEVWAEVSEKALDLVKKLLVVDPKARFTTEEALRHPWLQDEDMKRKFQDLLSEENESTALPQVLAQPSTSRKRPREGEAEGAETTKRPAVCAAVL

[5] = molecular target: Protein kinase C beta type (Homo sapiens) (UniProt P05771); test: PRKCB2 Invitrogen selectivity data (BI); details: Compound concentration 3.0 uM
Sequence of Protein kinase C beta type (Homo sapiens) (P05771 2-671 limits assumed): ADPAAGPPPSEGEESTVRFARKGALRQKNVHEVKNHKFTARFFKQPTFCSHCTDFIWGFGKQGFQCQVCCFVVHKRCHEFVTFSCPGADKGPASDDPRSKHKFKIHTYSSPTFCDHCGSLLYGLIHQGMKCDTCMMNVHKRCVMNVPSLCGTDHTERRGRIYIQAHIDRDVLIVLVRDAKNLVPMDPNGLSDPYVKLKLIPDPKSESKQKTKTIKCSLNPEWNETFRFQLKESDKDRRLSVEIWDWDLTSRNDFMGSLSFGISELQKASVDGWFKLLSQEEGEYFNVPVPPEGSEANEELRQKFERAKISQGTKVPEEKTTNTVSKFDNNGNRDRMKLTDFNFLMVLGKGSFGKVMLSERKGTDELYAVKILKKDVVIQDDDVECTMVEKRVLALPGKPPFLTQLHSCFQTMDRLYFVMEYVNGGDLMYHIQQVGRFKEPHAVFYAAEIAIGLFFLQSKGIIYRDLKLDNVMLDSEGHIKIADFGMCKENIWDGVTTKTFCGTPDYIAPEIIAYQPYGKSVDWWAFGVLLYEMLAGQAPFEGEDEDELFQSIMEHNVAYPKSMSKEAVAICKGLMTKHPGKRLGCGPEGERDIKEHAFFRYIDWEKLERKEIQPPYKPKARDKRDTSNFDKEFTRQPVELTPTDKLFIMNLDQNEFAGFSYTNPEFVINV

[6] = molecular target: CDK8/Cyclin C (Homo sapiens) (UniProt P49336+P24863); test: CDK8_CYCLINC Invitrogen selectivity data (BI); type: protein-complex assay; details: Compound concentration 3.0 uM
[7] = molecular target: Mitogen-activated protein kinase kinase kinase 20 (Homo sapiens) (UniProt Q9NYL2); test: ZAK Invitrogen selectivity data (BI); details: Compound concentration 3.0 uM
Sequence of Mitogen-activated protein kinase kinase kinase 20 (Homo sapiens) (Q9NYL2 2-800 limits assumed): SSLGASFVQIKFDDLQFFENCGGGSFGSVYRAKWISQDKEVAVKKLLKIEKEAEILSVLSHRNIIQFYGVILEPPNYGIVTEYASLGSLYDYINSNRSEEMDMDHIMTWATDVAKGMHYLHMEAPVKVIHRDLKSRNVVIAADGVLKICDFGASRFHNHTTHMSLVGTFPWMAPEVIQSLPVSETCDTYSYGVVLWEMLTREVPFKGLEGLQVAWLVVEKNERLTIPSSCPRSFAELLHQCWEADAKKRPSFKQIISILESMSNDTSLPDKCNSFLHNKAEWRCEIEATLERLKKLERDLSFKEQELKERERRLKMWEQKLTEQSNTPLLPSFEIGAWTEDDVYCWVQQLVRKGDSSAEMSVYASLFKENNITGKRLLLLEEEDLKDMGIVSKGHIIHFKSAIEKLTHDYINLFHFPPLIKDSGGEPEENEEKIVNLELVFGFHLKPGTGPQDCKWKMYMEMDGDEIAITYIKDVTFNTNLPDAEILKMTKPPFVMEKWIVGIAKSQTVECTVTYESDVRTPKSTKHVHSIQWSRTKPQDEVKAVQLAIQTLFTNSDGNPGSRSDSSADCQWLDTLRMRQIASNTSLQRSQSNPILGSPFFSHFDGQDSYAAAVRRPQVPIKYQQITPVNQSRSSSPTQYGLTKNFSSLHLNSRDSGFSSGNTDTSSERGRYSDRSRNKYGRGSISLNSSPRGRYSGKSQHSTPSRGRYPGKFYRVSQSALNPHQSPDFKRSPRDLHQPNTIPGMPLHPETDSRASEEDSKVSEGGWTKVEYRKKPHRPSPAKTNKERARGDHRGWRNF

[8] = molecular target: T2, Alpha-1B adrenergic receptor (Homo sapiens) (UniProt P35368); test: ALPHA1B/HU Cerep selectivity data (BI); details: Compound concentration 20.0 uM
T2 sequence (whole entry): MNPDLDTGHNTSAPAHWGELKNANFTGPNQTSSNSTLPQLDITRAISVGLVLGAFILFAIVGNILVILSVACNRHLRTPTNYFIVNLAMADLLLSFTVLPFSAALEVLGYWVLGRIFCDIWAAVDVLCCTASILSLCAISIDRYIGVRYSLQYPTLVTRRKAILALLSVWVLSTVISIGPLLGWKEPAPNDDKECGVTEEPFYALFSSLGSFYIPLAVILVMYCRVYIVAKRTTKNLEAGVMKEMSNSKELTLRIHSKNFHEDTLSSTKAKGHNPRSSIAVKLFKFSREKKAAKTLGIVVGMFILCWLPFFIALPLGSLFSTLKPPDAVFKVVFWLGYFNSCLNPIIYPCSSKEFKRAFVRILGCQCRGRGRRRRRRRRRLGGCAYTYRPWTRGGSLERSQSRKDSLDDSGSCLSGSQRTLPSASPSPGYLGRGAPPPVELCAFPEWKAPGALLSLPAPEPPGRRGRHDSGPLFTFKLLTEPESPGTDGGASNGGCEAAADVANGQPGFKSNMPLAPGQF

[9] = molecular target: T3, Muscle, skeletal receptor tyrosine-protein kinase (Homo sapiens) (UniProt O15146); test: MUSK Invitrogen selectivity data (BI); details: Compound concentration 3.0 uM
T3 sequence (whole entry): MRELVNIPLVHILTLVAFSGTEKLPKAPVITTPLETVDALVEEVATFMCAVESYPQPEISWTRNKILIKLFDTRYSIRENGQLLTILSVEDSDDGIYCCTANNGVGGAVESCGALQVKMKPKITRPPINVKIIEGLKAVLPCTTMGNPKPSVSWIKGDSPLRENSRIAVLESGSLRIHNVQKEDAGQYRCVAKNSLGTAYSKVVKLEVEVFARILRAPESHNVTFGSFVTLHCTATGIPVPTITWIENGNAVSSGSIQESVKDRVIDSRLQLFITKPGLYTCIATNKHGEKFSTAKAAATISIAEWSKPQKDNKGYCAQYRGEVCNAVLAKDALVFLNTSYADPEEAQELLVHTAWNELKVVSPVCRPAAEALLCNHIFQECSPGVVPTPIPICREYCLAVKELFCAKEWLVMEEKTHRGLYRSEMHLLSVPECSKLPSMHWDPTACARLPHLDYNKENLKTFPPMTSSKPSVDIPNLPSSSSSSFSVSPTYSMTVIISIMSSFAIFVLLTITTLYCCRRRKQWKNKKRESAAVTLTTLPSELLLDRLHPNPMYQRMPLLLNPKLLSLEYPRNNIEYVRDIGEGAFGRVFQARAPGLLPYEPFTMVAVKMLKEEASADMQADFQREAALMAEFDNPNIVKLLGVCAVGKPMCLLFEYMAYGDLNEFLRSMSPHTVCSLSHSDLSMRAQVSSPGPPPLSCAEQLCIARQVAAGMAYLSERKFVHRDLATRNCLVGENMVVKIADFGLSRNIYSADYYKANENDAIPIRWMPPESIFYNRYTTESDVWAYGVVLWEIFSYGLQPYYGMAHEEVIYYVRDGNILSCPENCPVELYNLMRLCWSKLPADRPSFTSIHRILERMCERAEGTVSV

[10] = molecular target: Sodium-dependent serotonin transporter (Homo sapiens) (UniProt P31645); test: 5HTTRANS/H Cerep selectivity data (BI); details: Compound concentration 20.0 uM
Sequence of Sodium-dependent serotonin transporter (Homo sapiens) (P31645 whole entry, looked up): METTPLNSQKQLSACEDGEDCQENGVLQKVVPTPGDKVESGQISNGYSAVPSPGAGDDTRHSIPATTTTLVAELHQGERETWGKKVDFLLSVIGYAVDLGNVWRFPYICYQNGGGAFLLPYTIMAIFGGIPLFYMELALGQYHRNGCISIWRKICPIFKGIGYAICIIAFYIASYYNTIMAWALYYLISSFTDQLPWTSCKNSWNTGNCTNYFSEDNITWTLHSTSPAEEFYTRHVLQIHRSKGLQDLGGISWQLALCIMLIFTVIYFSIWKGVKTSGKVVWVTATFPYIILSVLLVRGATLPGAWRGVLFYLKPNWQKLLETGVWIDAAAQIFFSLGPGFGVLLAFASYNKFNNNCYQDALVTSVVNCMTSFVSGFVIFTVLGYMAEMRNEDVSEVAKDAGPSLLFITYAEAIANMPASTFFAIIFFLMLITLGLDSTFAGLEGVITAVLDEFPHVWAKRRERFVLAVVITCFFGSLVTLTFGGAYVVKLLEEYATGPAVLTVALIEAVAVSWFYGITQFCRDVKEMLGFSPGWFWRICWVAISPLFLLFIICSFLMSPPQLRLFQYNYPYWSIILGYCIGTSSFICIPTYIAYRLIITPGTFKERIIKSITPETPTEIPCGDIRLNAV

[11] = molecular target: Mitogen-activated protein kinase 14 (Homo sapiens) (UniProt Q16539); test: P38ALPHA_CE Cerep selectivity data (BI); details: Compound concentration 20.0 uM
Sequence of Mitogen-activated protein kinase 14 (Homo sapiens) (Q16539 whole entry): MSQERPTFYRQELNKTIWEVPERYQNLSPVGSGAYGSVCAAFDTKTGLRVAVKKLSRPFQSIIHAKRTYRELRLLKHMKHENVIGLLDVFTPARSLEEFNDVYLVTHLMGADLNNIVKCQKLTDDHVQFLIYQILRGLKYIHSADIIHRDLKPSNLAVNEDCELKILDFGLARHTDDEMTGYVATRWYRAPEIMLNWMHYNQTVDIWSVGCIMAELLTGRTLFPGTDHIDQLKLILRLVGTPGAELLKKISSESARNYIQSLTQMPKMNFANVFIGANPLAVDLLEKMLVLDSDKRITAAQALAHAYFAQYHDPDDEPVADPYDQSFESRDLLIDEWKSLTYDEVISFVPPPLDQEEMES

[12] = molecular target: T4, 5-hydroxytryptamine receptor 1A (Homo sapiens) (UniProt P08908); test: 5HT1A/H Cerep selectivity data (BI); details: Compound concentration 20.0 uM
T4 sequence (whole entry): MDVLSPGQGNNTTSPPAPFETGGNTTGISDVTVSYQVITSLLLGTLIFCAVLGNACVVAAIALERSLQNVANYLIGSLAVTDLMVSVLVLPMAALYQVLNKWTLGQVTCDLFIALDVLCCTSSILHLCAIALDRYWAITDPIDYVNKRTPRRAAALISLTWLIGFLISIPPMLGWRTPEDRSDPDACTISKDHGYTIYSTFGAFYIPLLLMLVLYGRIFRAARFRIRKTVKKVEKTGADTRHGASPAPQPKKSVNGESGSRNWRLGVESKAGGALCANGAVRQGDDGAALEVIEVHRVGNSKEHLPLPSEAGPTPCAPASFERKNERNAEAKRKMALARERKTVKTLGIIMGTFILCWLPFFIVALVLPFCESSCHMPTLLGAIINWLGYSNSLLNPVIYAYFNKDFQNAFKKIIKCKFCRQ

[13] = molecular target: Muscarinic acetylcholine receptor M3 (Homo sapiens) (UniProt P20309); test: M3/HU Eurofins-Panlabs selectivity data (BI); details: Compound concentration 10.0 uM
[14] = molecular target: Neuronal acetylcholine receptor; alpha4/beta2 (Homo sapiens) (UniProt P17787+P43681); test: N_NEURO_A4B2 Cerep selectivity data (BI); type: protein-complex assay; details: filed as agonist, Compound concentration 20.0 uM

Measured: residual activity

CN(C)C(=O)Cn1cc(-c2nc([C@@](C)(c3ccc(-c4cnc(N)nc4)cc3)C3CC3)no2)cn1 [BI 665915]
inactive: [1] 105% | [2] 104% | [3] 93% | [4] 99% | [5] 100% | [6] 94% | [7] 97% | [8] 120% | [9] 97.5% | [10] 103% | [11] 113% | [12] 77% | [13] 105% | [14] 113%
